Experimental data from PMC9416487, “Comprehensive Evaluation of the Quality of Tripterygium Glycosides Tablets Based on Multi-Component Quantification Combined with an In Vitro Biological Assay” (Molecules, 2022).

Key:
[1] = system: NO production in LPS-induced RAW 264.7 cells; assay: Inhibitory effect on NO production in LPS-induced RAW 264.7 cells (Griess reagent); format: cell-based; conditions: for IC50: Mus musculus, RAW264.7; for IC50 / NO Inhibitory Effect IC50: investigated compounds, LPS (1 µg/mL)-induced RAW 264.7 cells, 24 h
Method: The culture medium was replaced with DMEM medium containing various concentrations of TGT or target compound, subsequently treated with LPS (1 µg/mL), and then incubated for 24 h. After 50 µL of cultured medium was transferred to a new 96-well plate, 50 µL of Griess reagent was added to each well. The absorbance at 540 nm was determined using a microplate reader (PerkinElmer, Waltham, MA, USA). The concentration of NO in the culture supernatants was calculated by using a standard curve of nitrite, a major stable product of NO, which was generated according to the application instructions for the Griess reagent.

[2] = system: RAW 264.7 cells; assay: Cytotoxicity against RAW 264.7 cells (CCK-8 method); conditions: for Therapeutic Index (TI, = TC50/IC50) / Cytotoxicity TC50: investigated compounds; for Cytotoxicity TC50: 24 h, CCK-8
Method: Cells were cultured at 37 °C in a humidified air incubator with 5% CO2 in Dulbecco’s modified Eagle’s medium (DMEM; Gibco, Grand Island, NY, USA) supplemented with 10% fetal bovine serum (FBS; Gibco, USA), 100 units/mL penicillin and 100 µg/mL streptomycin (Gibco, USA).
RAW 264.7 cells (5.0 × 10^4 cells/well) were seeded into a 96-well plate. After overnight incubation, various concentrations of TGT or target compound were applied to the cells, which were then incubated for 24 h. The same volume of DMSO was added to the compound-untreated group to account for any effects of DMSO on cell viability. Then, the culture medium was removed, 100 μL DMEM medium plus 10 μL CCK-8 reagent (MCE, Suzhou, China) was added, and the cells were incubated for another 2 h at 37 °C in a 5% CO2 incubator. Absorbance at 450 nm was read using a microplate reader, and cell viability was calculated as the percentage of absorbance of various concentrations versus the control group.

[3] = set-up: method as in PMID 29787994; conditions: reported in the literature ref [20]; cited from earlier work

SMILES: CC1=C(O)C(=O)C=C2C1=CC=C1[C@@]2(C)CC[C@@]2(C)[C@@H]3C[C@](C)(C(=O)O)CC[C@]3(C)CC[C@]12C [celastrol]
- IC50 [1]: 0.56 µM
- Therapeutic Index (TI, = TC50/IC50) [2]: 3.07
- Cytotoxicity TC50 [2]: 1.72 µM

SMILES: C[C@@]1(C(=O)O)CC[C@]2(C)CC[C@]3(C)C4=CC(=O)c5c(cc(O)c(O)c5C=O)[C@]4(C)CC[C@@]3(C)[C@@H]2C1 [demethylzeylasteral]
- IC50 [1]: 3.48 µM
- Therapeutic Index (TI, = TC50/IC50) [2]: 7.93
- Cytotoxicity TC50 [2]: 27.59 µM

SMILES: CC(=O)OC[C@]12[C@H](OC(C)=O)[C@H](OC(C)=O)[C@@H]3[C@@H](OC(C)=O)[C@@]14O[C@@]3(C)COC(=O)c1cccnc1C(C)C(C)C(=O)O[C@@H]([C@H](OC(C)=O)[C@@H]2OC(C)=O)[C@]4(C)O (stereo partly shown) [euonymine]
- IC50 [1]: > 50 µM
- Cytotoxicity TC50 [2]: nu (Had no NO inhibitory effect or cytotoxicity with an NO production rate less than 0 or cell viability more than 100% at a concentration of 50 μM)

SMILES: CC(=O)OCC12C(OC(C)=O)C(OC(C)=O)C3C(O)C14OC3(C)COC(=O)c1cccnc1C(C)C(C)C(=O)OC(C(OC(C)=O)C2OC(C)=O)C4(C)O (stereo not shown) [neoeunymine]
- IC50 [1]: > 50 µM
- Cytotoxicity TC50 [2]: nu (Had no NO inhibitory effect or cytotoxicity with an NO production rate less than 0 or cell viability more than 100% at a concentration of 50 μM)

SMILES: CC(=O)OCC12C(OC(C)=O)C(OC(C)=O)C3C(OC(C)=O)C14OC3(C)COC(=O)c1cnccc1C(C)C(C)C(=O)OC(C(OC(C)=O)C2OC(C)=O)C4(C)O (stereo not shown) [peritassine A]
- IC50 [1]: > 50 µM
- Cytotoxicity TC50 [2]: nu (Had no NO inhibitory effect or cytotoxicity with an NO production rate less than 0 or cell viability more than 100% at a concentration of 50 μM)

SMILES: C[C@@]1(O)C[C@@]23CC[C@H]4[C@@]5(CCC[C@]4(C)C(=O)OC5)[C@@H]2CC[C@H]1C3 [tripterifordin]
- IC50 [1]: > 50 µM
- Cytotoxicity TC50 [2]: w ^b (had weak NO inhibitory effect or cytotoxicity with an NO production rate less than 50% or the cell viability more than 50% at a concentration of 50 μM)

SMILES: CC(C)[C@]12O[C@H]1[C@@H]1O[C@]13[C@]1(O[C@H]1C[C@H]1C4=C(CC[C@@]13C)C(=O)OC4)[C@@H]2O [triptolide]
- IC50 [1]: 0.066 µM
- Therapeutic Index (TI, = TC50/IC50) [2]: 1.08
- Cytotoxicity TC50 [2]: 0.071 µM

SMILES: CC(C)c1ccc2c(c1O)CC[C@H]1C3=C(CC[C@]21C)C(=O)OC3 [triptophenolide]
- IC50 [1]: 43.1 µM

SMILES: CC(C)C1=CC(=O)C2=C(CC[C@H]3[C@@](C)(CO)C(=O)CC[C@]23C)C1=O [triptoquinone B]
- IC50 [1]: 35.6 µM
- Therapeutic Index (TI, = TC50/IC50) [2]: 0.0031
- Cytotoxicity TC50 [2]: 0.11 µM

SMILES: CC(=O)OC[C@]12[C@H](OC(C)=O)[C@H](OC(C)=O)[C@@H]3[C@@H](OC(C)=O)[C@@]14O[C@@]3(C)COC(=O)c1cccnc1CCC(C)C(=O)O[C@@H]([C@H](OC(=O)c1ccco1)[C@@H]2OC(C)=O)[C@]4(C)O (stereo partly shown) [wilforgine]
- NO Inhibitory Effect IC50 [1]: w (had weak NO inhibitory effect or cytotoxicity with an NO production rate less than 50% or the cell viability more than 50% at a concentration of 50 μM)
- Cytotoxicity TC50 [2]: w (had weak NO inhibitory effect or cytotoxicity with an NO production rate less than 50% or the cell viability more than 50% at a concentration of 50 μM)

SMILES: CC(=O)OC[C@]12[C@H](OC(C)=O)[C@H](OC(C)=O)[C@@H]3[C@@H](OC(C)=O)[C@@]14O[C@@]3(C)COC(=O)c1cccnc1CCC(C)C(=O)O[C@@H]([C@H](OC(=O)c1ccccc1)[C@@H]2OC(C)=O)[C@]4(C)O (stereo partly shown) [wilforine]
- NO Inhibitory Effect IC50 [1]: w (had weak NO inhibitory effect or cytotoxicity with an NO production rate less than 50% or the cell viability more than 50% at a concentration of 50 μM)
- Cytotoxicity TC50 [2]: w (had weak NO inhibitory effect or cytotoxicity with an NO production rate less than 50% or the cell viability more than 50% at a concentration of 50 μM)

SMILES: CC1(C)[C@@H](O)CC[C@]2(C)[C@H]3CC=C4[C@@H]5C[C@@]6(C)C[C@H](OC6=O)[C@]5(C)CC[C@@]4(C)[C@]3(C)CC[C@@H]12 [wilforlide A]
- NO inhibitory effect / anti-inflammatory activity, in words ([1]; LPS-induced RAW 264.7 cells, up to 50 μM): negligible anti-inflammatory activity
- IC50 [1]: > 50 µM
- oral bioavailability [3]: extremely low
- Cytotoxicity TC50 [2]: nu (Had no NO inhibitory effect or cytotoxicity with an NO production rate less than 0 or cell viability more than 100% at a concentration of 50 μM)
- cytotoxicity / influence on cell viability, in words ([2]; up to 50 μM): negligible

SMILES: CC(=O)OCC12C(OC(C)=O)C(OC(C)=O)C3C(OC(C)=O)C14OC3(C)COC(=O)c1cccnc1CCC(C)(OC(=O)c1ccccc1)C(=O)OC(C(OC(C)=O)C2OC(C)=O)C4(C)O (stereo not shown) [wilfornine A]
- NO Inhibitory Effect IC50 [1]: w (had weak NO inhibitory effect or cytotoxicity with an NO production rate less than 50% or the cell viability more than 50% at a concentration of 50 μM)
- Cytotoxicity TC50 [2]: w (had weak NO inhibitory effect or cytotoxicity with an NO production rate less than 50% or the cell viability more than 50% at a concentration of 50 μM)

SMILES: CC(=O)OC[C@]12[C@H](OC(C)=O)[C@H](OC(C)=O)[C@@H]3[C@@H](OC(C)=O)[C@@]14O[C@@]3(C)COC(=O)c1cccnc1CCC(C)(O)C(=O)O[C@@H]([C@H](OC(=O)c1ccco1)[C@@H]2OC(C)=O)[C@]4(C)O (stereo partly shown) [wilfortrine]
- IC50 [1]: > 50 µM
- Cytotoxicity TC50 [2]: nu (Had no NO inhibitory effect or cytotoxicity with an NO production rate less than 0 or cell viability more than 100% at a concentration of 50 μM)
